According to patent US20120093917A1, “METNASE AND INTNASE INHIBITORS AND THEIR USE IN TREATING CANCER” (priority 2009, published 2012):

Legend:
[1] = test system: human colon cancer cell line SW48; assay: Colony formation assay, colon cancer cell line SW48; assay type: cell-based; settings: 2 μM inhibitor, 18 hr treatment, colonies after 7-14 days, normalized to DMSO, FIG. 17
Procedure: The human colon cancer cell line SW48 was plated (1000 cells per plate with a ˜20% plating efficiency) in 10 cm dishes, using 10 ml of DMEM media (always with 10% FBS) per plate, and placed in a […] incubator (5% CO2) for 24 hrs. After 24 hr, each plate was treated with one or a combination of the following agents: DMSO (0.2% in solution), 3 μM 5-fluorouracil (5FU, dissolved in 1×PBS), and/or 2 μM of each Metnase/intnase inhibitor (dissolved in DMSO). When the DMSO, 5FU, and/or inhibitors were added, the plates were swirled several times to assure mixing. After agents were added to the DMEM, the plates were put back into the incubators for 18 hr. Following 18 hr treatment, the media was removed and the cells were washed twice with 1×PBS. Ten milliliters of fresh DMEM was added and the cells were placed back into the incubator for 7-14 days. After the incubation period that will allow surviving cells to grow and form colonies, media was discarded and surviving colonies were stained with methylene blue. Colonies, a reflection of a single surviving cell that expanded, were counted to measure survival. All experiments were run in triplicate. Experiments were normalized to either DMSO (black asterices) or 5FU (red asterices).

[2] = test system: human DNA polymerases; settings: cited from earlier work
[3] = test system: human myeloid cell line KG-1; assay: Leukemia cell line KG-1 growth curve, alone or with VP-16; assay type: cell-based; settings: counted daily for 4 days
Procedure: The human myeloid cell line KG-1 was grown in RPMI1640 with 10% FBS. The small cell lung cancer cell line CRL5898 was grown in HITES medium (Dulbecco's medium: Ham's F12, 50:50 mix, Insulin 0.005 mg/ml Transferrin 0.01 mg/ml Sodium selenite 30 nM Hydrocortisone 10 nM beta-estradiol 10 nM HEPES 10 mM L-glutamine 2 mM (in addition to that in the base medium)). Both cell lines were seeded at 10,000 cells/ml in the appropriate medium in 6 well plates. The Chem Div compounds were resuspended as 5 mM stock solutions in DMSO. The Chem Div compounds were added alone at 2 uM and 5 uM or in combination with VP-16 (also called etoposide) at 0.05 uM. DMSO was added to the control wells. Cells were plated and treated in triplicate and counted daily for 4 days.

[4] = in vivo; cited from earlier work
[5] = target: 166 enzymes, transporters and receptors; settings: read-out: IC50 in screening panel, all assays; cited from earlier work
[6] = target: ABCB1 (MDR-1; P-gp) (Homo sapiens, UniProt P08183); settings: not told; cited from earlier work
[7] = test system: human Pancreatic cancer cell line BXPC3; assay: Colony formation assay, pancreatic cancer cell line BXPC3; assay type: cell-based; settings: BXPC3, FIG. 16
Procedure: The human Pancreatic cancer cell line BXPC3 was plated (4000 cells per plate with a ˜10% plating efficiency) in 10 cm dishes, using 10 ml of RPMI media (always with 10% FBS) per plate, and placed in a […] incubator (5% CO2) for 24 hrs. After 24 hrs, each plate was treated with one or a combination of the following agents: DMSO (0.2% in solution), 0.3 μg/ml of gemcitabine (dissolved in 1×PBS), and/or 2 μM of each Metnase/Intnase inhibitor (dissolved in DMSO). When the DMSO, gemcitabine, and/or inhibitors were added, the plates were swirled several times to assure mixing. After the agents were added to the RPMI, the plates were put back into the incubators for 18 hrs. Following 18 hrs treatment, the media was removed and the cells were washed twice with 1×PBS. Ten ml of fresh RPMI with 10% FBS was added and the cells were placed back into the incubator for 14 days. After the incubation period that will allow surviving cells to form colonies, the media was discarded and surviving colonies were stained with methylene blue. Colonies, a reflection of a single surviving cell that expanded, were counted to measure survival. All experiments were run in triplicate. Experiments were normalized to either DMSO (black asterices) or gemcitabine (red asterices).

[8] = test system: cytochrome P450 enzymes; settings: cited from earlier work

ABCB1 (MDR-1; P-gp), sequence (P08183 whole entry, species assumed): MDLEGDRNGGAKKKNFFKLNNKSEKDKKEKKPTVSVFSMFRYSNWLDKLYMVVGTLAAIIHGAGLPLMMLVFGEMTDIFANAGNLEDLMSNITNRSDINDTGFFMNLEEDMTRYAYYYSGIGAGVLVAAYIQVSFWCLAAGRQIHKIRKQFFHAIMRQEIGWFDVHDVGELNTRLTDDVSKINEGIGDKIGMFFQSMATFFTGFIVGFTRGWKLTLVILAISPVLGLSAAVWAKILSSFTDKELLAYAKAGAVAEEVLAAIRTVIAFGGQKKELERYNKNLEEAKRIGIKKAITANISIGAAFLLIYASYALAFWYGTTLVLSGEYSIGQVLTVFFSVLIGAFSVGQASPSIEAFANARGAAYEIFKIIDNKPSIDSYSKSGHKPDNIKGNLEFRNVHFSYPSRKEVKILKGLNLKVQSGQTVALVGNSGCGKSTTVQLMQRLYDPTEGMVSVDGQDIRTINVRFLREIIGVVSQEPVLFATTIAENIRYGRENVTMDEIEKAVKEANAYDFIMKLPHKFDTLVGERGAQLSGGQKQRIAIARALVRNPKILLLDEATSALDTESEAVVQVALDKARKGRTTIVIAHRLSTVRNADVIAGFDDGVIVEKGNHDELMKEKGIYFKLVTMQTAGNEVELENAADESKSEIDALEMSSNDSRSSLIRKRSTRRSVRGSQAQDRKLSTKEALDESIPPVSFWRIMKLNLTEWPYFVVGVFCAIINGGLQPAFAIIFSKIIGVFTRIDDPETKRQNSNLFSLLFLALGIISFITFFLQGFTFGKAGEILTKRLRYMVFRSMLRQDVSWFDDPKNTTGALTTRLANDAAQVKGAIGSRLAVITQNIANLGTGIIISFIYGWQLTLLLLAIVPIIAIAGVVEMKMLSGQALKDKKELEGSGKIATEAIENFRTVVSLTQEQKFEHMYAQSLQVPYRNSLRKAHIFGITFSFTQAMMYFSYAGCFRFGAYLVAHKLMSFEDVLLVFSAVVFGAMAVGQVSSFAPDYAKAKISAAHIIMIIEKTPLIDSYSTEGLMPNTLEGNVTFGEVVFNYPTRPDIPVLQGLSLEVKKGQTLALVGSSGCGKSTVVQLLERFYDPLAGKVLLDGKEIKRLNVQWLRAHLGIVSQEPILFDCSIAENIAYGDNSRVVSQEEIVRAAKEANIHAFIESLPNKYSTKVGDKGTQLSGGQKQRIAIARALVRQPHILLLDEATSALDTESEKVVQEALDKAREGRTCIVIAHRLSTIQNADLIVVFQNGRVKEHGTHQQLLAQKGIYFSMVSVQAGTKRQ

In the case of `Cc1nnc(C(=O)NC(C)(C)C2=N/C(=C(\O)NCc3ccc(F)cc3)C(=O)C(=O)N2C)o1` [Raltegravir, N-[2-[(4Z)-4-[[(4-fluorophenyl)methylamino]-hydroxymethylidene]-1-methyl-5,6-dioxopyrimidin-2-yl]propan-2-yl]-5-methyl-1,3,4-oxadiazole-2-carboxamide], the “activity on their own against the colon cancer cells (surviving colonies)” value [1] is listed as “activity on their own”, the “inhibition of human DNA polymerases” value [2] is listed as “does not inhibit” and the “effect of compound alone on KG-1 growth, lower/low dose” value ([3]; lower (low) dose of compound (added at 2 uM and 5 uM)) is listed as “little effect on leukemia cell growth”. The “potentiation of low dose VP-16 on KG-1 growth, lower/low dose of compound” value ([3]; lower (low) dose of compound + VP-16 0.05 uM) was “potentiated the anti-proliferative effect of low dose VP-16”, the Serum half-life [4] was 9 h and the IC50 [5] was > 10 µM. The “inhibitor of ABCB1 (MDR-1; P-gp)” value [6] was “not an inhibitor”, the “potentiation of gemcitabine (surviving colonies)” value ([7]; 2 μM inhibitor + 0.3 μg/ml gemcitabine, 18 hrs, normalized to gemcitabine) was “potentiate gemcitabine” and the “activity on their own against the pancreatic cancer cells (surviving colonies)” value ([7]; 2 μM inhibitor, 18 hrs treatment, colonies after 14 days, normalized to DMSO) was “activity on their own”. The “substrate, inducer or inhibitor of cytochrome P450 enzymes” value [8] was “not a substrate, nor an inducer or inhibitor”.
